# From patent publication US8883963B2 (Cadila Healthcare Limited, priority 2007, dated 2014)
# Assays:
# [1] = Stability in simulated intestinal fluid; assay type: in vitro ADME; settings: 2 μM peptidomimetic, simulated intestinal fluid pH 7.5, 37° C.; for half-life at 2 μM: read-out: half-life (t1/2) when incubated with simulated intestinal fluid
# Description: (§1) Reactions were terminated by the addition of TFA/H2O (15 mL, 10% (v/v)). […] The column was equilibrated with TFA/H20, at a flow rate of 1 mL/min.
# Human GLP-1 receptor = molecular target: T1, Human GLP-1 receptor (Homo sapiens, UniProt P43220); test: In vitro Human GLP-1 R agonist activity (cyclic AMP determination) in CHO/human GLP1R cells; assay type: cell-based
# T1 construct: The full-length cDNA was cloned in pcDNA3.1(+); expressed in transfected cells
# Description: The novel peptidomimetics were screened for Human GLP-1 receptor (HGLP-1 R) agonist activity (in vitro), using the cAMP cell-based assay, in stably transfected CHO/human GLP1R cells. […] CHO cells were grown in Ham's F12 medium containing L-Glutamine (2 mM), HEPES (25 mM), NaHCO3 (1.1 g/L) and supplemented with NewBorn Calf Serum (NBCS; 10%), Penicillin (50 U/ml (v/v)) and Streptomycin (50 ug/ml (v/v)). Cells were split every 3 days 1:8.
# The cDNA encoding the human GLP-1 receptor was isolated by RT-PCR according to standard protocol. The full-length cDNA was cloned in pcDNA3.1(+). […] Clones expressing the receptor were generated by G418 (800 μg/ml active, Sigma) selection. The stable clones were thereafter maintained at 500 ug/ml (G418). The selected clone was used between passages 9-25 for cAMP assays.
# The trypsin was inactivated using Ham's F12 medium containing 10% NBCS and the cells were suspended in 2 ml of complete medium. […] The medium was aspirated off from the 12 well plate and the cells were washed once using Ham's F12 (plain). […] The cells were incubated with the test compounds for 30 min in humidified atmosphere and 37° C. After the incubation, the medium was removed and cells were washed once with plain Ham's F12. Subsequently, the cells were lysed by adding 500 ul of ice cold 0.1 N HCl to each well and shaking for 30 minutes at 200 rpm. The cells were then scrapped, the lysate was collected in micro centrifuge tubes and centrifuged at 12000 rpm for 10 min to remove the debris. 300 ul of supernatant from each micro-centrifuge tube was then removed into a glass tube and dried under N2 for 30 min, for cAMP estimation. The total cAMP was estimated from the sample according to the manufacturer's protocol using Cyclic AMP immunoassay kit (R&D systems, Minneapolis. MN). The remaining supernatant is used to determine the protein concentration using micro BCA (Sigma). Data is calculated as percent of control (Vehicle: water) and expressed as Mean±SD.
# [2] = Stability in simulated gastric fluid; assay type: in vitro ADME; settings: 2 μM peptidomimetic, simulated gastric fluid pH 1.5, 37° C.; for half-life at 2 μM: read-out: half-life (t1/2) when incubated with simulated gastric fluid
# Description: as §1
# [3] = Stability in liver microsomes; assay type: in vitro ADME; settings: 2 μM peptidomimetic, human liver microsomes, 37° C.; for half-life at 2 μM: pH 7.8, read-out: half-life (t1/2) when incubated with liver microsomes
# Description: as §1
# DPP IV = DPP IV (Homo sapiens, UniProt P27487); test: Stability against DPP IV enzyme; assay type: in vitro ADME; settings: 37° C.; for % degradation of peptidomimetics in 24 h when incubated with DPP-IV enzyme: 2 μM peptidomimetic; for half-life at 2 μM: DPP IV enzyme, pH 7.8, 2 μM peptidomimetic, read-out: half-life (t1/2) when incubated with DPP-IV enzyme
# Description: as §1
# [4] = Stability in human plasma; assay type: in vitro ADME; settings: 2 μM peptidomimetic, pooled human plasma, 37° C.; for half-life at 2 μM: pH 7.8, read-out: half-life (t1/2) when incubated with human plasma
# Description: as §1
# T1 sequence (P43220 24-463): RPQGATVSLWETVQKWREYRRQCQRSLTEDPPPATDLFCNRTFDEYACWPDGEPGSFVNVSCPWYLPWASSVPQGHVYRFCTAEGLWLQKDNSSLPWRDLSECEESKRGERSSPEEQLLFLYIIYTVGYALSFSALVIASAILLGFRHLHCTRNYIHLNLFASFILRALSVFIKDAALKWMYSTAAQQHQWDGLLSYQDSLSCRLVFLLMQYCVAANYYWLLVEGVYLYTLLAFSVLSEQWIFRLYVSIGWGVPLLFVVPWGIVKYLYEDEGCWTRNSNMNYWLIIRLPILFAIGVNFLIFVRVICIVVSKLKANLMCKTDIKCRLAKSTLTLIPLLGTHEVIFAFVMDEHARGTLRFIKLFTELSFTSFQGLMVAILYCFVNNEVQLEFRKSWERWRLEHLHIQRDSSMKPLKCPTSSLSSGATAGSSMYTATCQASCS
# Sequence of DPP IV (P27487 whole entry, species assumed): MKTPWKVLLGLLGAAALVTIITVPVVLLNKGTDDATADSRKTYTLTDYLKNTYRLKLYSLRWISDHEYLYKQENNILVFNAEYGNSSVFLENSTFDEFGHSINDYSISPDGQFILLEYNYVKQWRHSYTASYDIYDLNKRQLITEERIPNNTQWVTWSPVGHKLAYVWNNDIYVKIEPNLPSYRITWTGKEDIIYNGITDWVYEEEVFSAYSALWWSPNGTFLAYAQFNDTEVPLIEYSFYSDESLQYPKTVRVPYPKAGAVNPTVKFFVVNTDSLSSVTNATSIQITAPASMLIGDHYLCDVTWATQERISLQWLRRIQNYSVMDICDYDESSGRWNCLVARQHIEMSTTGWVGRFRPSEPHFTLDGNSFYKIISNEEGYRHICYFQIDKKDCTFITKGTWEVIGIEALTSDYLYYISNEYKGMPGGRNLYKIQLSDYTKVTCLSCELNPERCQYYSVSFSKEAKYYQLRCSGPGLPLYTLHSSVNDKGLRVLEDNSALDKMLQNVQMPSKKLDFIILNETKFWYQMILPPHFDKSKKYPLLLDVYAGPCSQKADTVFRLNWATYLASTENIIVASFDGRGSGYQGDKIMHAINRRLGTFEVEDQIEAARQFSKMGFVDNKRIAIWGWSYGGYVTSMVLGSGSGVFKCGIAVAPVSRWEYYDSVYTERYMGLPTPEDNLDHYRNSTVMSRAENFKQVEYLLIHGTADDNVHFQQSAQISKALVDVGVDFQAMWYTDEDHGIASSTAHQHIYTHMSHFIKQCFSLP
SMILES,half-life (t1/2) when incubated with simulated intestinal fluid [1],% degradation of peptidomimetics in 24 h when incubated with simulated intestinal fluid [1] [%],"Human GLP-1 R activity (cAMP release), % activity with respect to control (Human GLP-1 receptor; 1 nM test compound) [%]","Human GLP-1 R activity (cAMP release), % activity with respect to control (Human GLP-1 receptor; 10 nM test compound) [%]","Human GLP-1 R activity (cAMP release), % activity with respect to control (Human GLP-1 receptor; 100 nM test compound) [%]","Human GLP-1 R activity (cAMP release), % activity with respect to control (Human GLP-1 receptor; 1 μM test compound) [%]","Human GLP-1 R activity (cAMP release), % activity with respect to control (Human GLP-1 receptor; 10 μM test compound) [%]",half-life (t1/2) when incubated with simulated gastric fluid [2],% degradation of peptidomimetics in 24 h when incubated with simulated gastric fluid [2] [%],% degradation of peptidomimetics in 24 h when incubated with liver microsomes [3] [%],half-life at 2 μM [3] [h],% degradation of peptidomimetics in 24 h when incubated with DPP-IV enzyme (DPP IV) [%],half-life at 2 μM (DPP IV) [h],% degradation of peptidomimetics in 24 h when incubated with human plasma [4] [%],half-life at 2 μM [4] [h],half-life at 2 μM [1] [h],half-life at 2 μM [2] [h]
"CCc1cc(OC)ccc1-c1ccc(CC(NC(=O)[C@H](CC(=O)O)NC(=O)[C@H](CO)NC(=O)[C@@H](NC(=O)[C@H](Cc2ccccc2)NC(=O)[C@@H](NC(=O)CNC(=O)[C@H](CCC(N)=O)NC(=O)[C@H](C)NC(=O)[C@@H](N)Cc2c[nH]cn2)[C@@H](C)O)[C@@H](C)O)C(=O)NC(CCCc2ccc(Cl)cc2C)C(N)=O)cc1 (single isomer, unassigned) [compound 16]",(6) h,40,99 ± 0.11,99 ± 0.13,99 ± 0.16,99 ± 0.06,99 ± 0.10,(8) h,14,78,1,70,9,71,8,–,–
"CCc1cc(OC)ccc1-c1ccc(CC(NC(=O)[C@H](CC(=O)O)NC(=O)[C@H](CO)NC(=O)[C@@H](NC(=O)[C@H](Cc2ccccc2)NC(=O)[C@@H](NC(=O)CNC(=O)[C@H](CCC(N)=O)NC(=O)C(C)(C)NC(=O)[C@@H](N)Cc2c[nH]cn2)[C@@H](C)O)[C@@H](C)O)C(=O)NC(CCCc2ccc(OC)cc2Cl)C(N)=O)cc1 (single isomer, unassigned) [compound 68]",(6) h,46,39 ± 0.11,80 ± 0.09,88 ± 0.06,96 ± 0.14,99 ± 0.19,(8) h,12,83,1,74,9,75,8,–,–
"CCc1cc(OC)ccc1-c1ccc(CC(NC(=S)[C@H](CC(=O)O)NC(=O)[C@H](CO)NC(=O)[C@@H](NC(=O)C(C)(Cc2ccccc2F)NC(=O)[C@@H](NC(=O)CNC(=O)C(CCC#N)NC(=O)C(C)(C)NC(=O)[C@@H](N)Cc2c[nH]cn2)[C@H](C)O)[C@H](C)O)C(=S)NC(CCCc2ccccc2F)C(N)=O)cc1 (single isomer, unassigned) [compound 180]",–,00,40 ± 0.11,81 ± 0.09,89 ± 0.06,96 ± 0.14,99 ± 0.19,–,50,86,2,00,> 24,00,> 24,> 24,4
"CCc1cc(OC)ccc1-c1ccc(CC(CNC(CCCc2ccccc2)C(N)=O)NC(=O)[C@H](CC(=O)O)NC(=O)[C@H](CO)NC(=O)[C@@H](NC(=O)C(C)(Cc2ccccc2F)NC(=O)[C@@H](NC(=O)CNC(=O)[C@H](CCC(N)=O)NC(=O)C(C)(C)NC(=O)[C@H](Cc2c[nH]cn2)NC(C)=O)[C@H](C)O)[C@H](C)O)cc1 (single isomer, unassigned) [compound 185]",–,00,46 ± 0.022,85 ± 0.46,90 ± 0.41,99 ± 0.66,99 ± 0.03,–,55,84,2,00,> 24,00,> 24,> 24,4
"CCc1cc(OC)ccc1-c1ccc(CC(CNC(CCCc2ccccc2)C(N)=O)NC(=O)[C@H](CC(=O)O)NC(=O)[C@H](CO)NC(=O)[C@@H](NC(=O)C(C)(Cc2ccccc2F)NC(=O)[C@@H](NC(=O)CNC(=O)C(CCC#N)NC(=O)C(C)(C)NC(=O)[C@@H](N)Cc2c[nH]cn2)[C@H](C)O)[C@H](C)O)cc1 (single isomer, unassigned) [compound 190]",–,00,41 ± 0.09,82 ± 0.07,87 ± 0.04,95 ± 0.01,98 ± 0.08,–,45,85,2,00,> 24,00,> 24,> 24,4
"CCc1cc(OC)ccc1-c1ccc(CC(CNC(CCCc2ccccc2)C(N)=O)NC[C@H](CC(=O)O)NC(=O)[C@H](CO)NC(=O)[C@@H](NC(=O)C(C)(Cc2ccccc2F)NC(=O)[C@@H](NC(=O)CNC(=O)[C@H](CCC(N)=O)NC(=O)C(C)(C)NC(=O)[C@H](Cc2c[nH]cn2)NC(=O)OC)[C@H](C)O)[C@H](C)O)cc1 (single isomer, unassigned) [compound 198]",–,00,82 ± 0.22,87 ± 0.12,92 ± 0.14,99 ± 0.22,99 ± 0.26,–,49,82,2,00,> 24,00,> 24,> 24,4
